Data as given in PMC11012124, “Synthesis of Novel Triazine-Based Chalcones and 8,9-dihydro-7H-pyrimido[4,5-b][1,4]diazepines as Potential Leads in the Search of Anticancer, Antibacterial and Antifungal Agents” (International Journal of Molecular Sciences, 2024).

What was measured:
60 cancer cell lines = test: NCI-60 one-dose screen (10 μM); assay type: cell-based; details: Homo sapiens; one dose of 10 μM, mean over 60 cancer cell lines; read-out: Mean Growth Percent (MGP)
From the text: Additionally, the mean of the growth percentages (MGP) of each compound against all the 60 cancer cell lines is also reported, which is used as one of the selection criteria to continue with tests at five concentration doses.

NCI-H460 = test: cells; details: Homo sapiens, NCI-H460, 48 h; for CC50: read-out: LC50
MALME-3M = test: cells; details: Homo sapiens, 48 h; for CC50: read-out: LC50
KM12 = test: cells; details: Homo sapiens, KM12, 48 h; for CC50: read-out: LC50
SK-MEL-28 = test: cells; details: Homo sapiens, SK-MEL-28, 48 h; for CC50: read-out: LC50
SNB-75 = test: cells; details: Homo sapiens, SNB-75, 48 h; for CC50: read-out: LC50
NCI-H322M = test: cells; details: Homo sapiens, 48 h; for CC50: read-out: LC50
UACC-257 = test: cells; details: Homo sapiens, UACC-257, 48 h; for CC50: read-out: LC50
SNB-19 = test: cells; details: Homo sapiens, SNB-19, 48 h; for CC50: read-out: LC50
NCI-H23 = test: cells; details: Homo sapiens, NCI-H23, 48 h; for CC50: read-out: LC50
SF-268 = test: cells; details: Homo sapiens, SF-268, 48 h; for CC50: read-out: LC50
HL-60(TB) = test: cells; details: Homo sapiens, HL-60, 48 h; for CC50: read-out: LC50
UO-31 = test: cells; details: Homo sapiens, UO-31, 48 h; for CC50: read-out: LC50
SK-MEL-2 = test: cells; details: Homo sapiens, SK-MEL-2, 48 h; for CC50: read-out: LC50
SW-620 = test: cells; details: Homo sapiens, SW-620, 48 h; for CC50: read-out: LC50
NCI-H226 = test: cells; details: Homo sapiens, NCI-H226, 48 h; for CC50: read-out: LC50
OVCAR-8 = test: cells; details: Homo sapiens, OVCAR-8, 48 h; for CC50: read-out: LC50
HOP-62 = test: cells; details: Homo sapiens, HOP-62, 48 h; for CC50: read-out: LC50
SK-MEL-5 = test: cells; details: Homo sapiens, SK-MEL-5, 48 h; for CC50: read-out: LC50
786-0 = test: cells; details: Homo sapiens, 786-0, 48 h; for CC50: read-out: LC50
SF-295 = test: cells; details: Homo sapiens, SF-295, 48 h; for CC50: read-out: LC50
BT-549 = test: cells; details: Homo sapiens, BT-549, 48 h; for CC50: read-out: LC50
EKVX = test: cells; details: Homo sapiens, 48 h; for CC50: read-out: LC50
COLO 205 = test: cells; details: Homo sapiens, COLO 205, 48 h; for CC50: read-out: LC50
HCT-116 = test: cells; details: Homo sapiens, HCT-116, 48 h; for CC50: read-out: LC50
OVCAR-4 = test: cells; details: Homo sapiens, OVCAR-4, 48 h; for CC50: read-out: LC50
A549/ATCC = test: cells; details: Homo sapiens, A549, 48 h; for CC50: read-out: LC50
HCT-15 = test: cells; details: Homo sapiens, HCT-15, 48 h; for CC50: read-out: LC50
U251 = test: cells; details: Homo sapiens, U-251, 48 h; for GI50: U251, 48 h; for CC50: read-out: LC50
OVCAR-5 = test: cells; details: Homo sapiens, OVCAR-5, 48 h; for CC50: read-out: LC50
SN12C = test: cells; details: Homo sapiens, 48 h; for CC50: read-out: LC50
ACHN = test: cells; details: Homo sapiens, 48 h; for CC50: read-out: LC50
CCRF-CEM = test: cells; details: Homo sapiens, 48 h; for CC50: read-out: LC50
RPMI-8226 = test: cells; details: Homo sapiens, RPMI-8226, 48 h; for CC50: read-out: LC50
IGROV1 = test: cells; details: Homo sapiens, IGROV-1, 48 h; for CC50: read-out: LC50
M14 = test: cells; details: Homo sapiens, M14, 48 h; for CC50: read-out: LC50
MDA-MB-435 = test: cells; details: Homo sapiens, MDA-MB-435, 48 h; for CC50: read-out: LC50

Compound: CN(C)c1nc(NCCNS(=O)(=O)c2ccc(C(=O)/C=C/c3ccc(Cl)cc3)cc2)nc(Nc2ccc(F)cc2)n1 [24e]
- activity at 10 µM (60 cancer cell lines): -46.6%
- GI50 (NCI-H460): 3.38 µM
- CC50 (NCI-H460): 13.8 µM
- GI50 (MALME-3M): 12.8 µM
- CC50 (MALME-3M): 26.4 µM
- GI50 (KM12): 2.97 µM
- CC50 (KM12): 9.1 µM
- GI50 (SK-MEL-28): 6.77 µM
- CC50 (SK-MEL-28): 20.1 µM
- GI50 (SNB-75): 5.6 µM
- CC50 (SNB-75): 25.7 µM
- GI50 (NCI-H322M): 9.36 µM
- CC50 (NCI-H322M): 24.9 µM
- GI50 (UACC-257): 8.36 µM
- CC50 (UACC-257): 21.8 µM
- GI50 (SNB-19): 9.18 µM
- CC50 (SNB-19): 21.3 µM
- GI50 (NCI-H23): 10.7 µM
- CC50 (NCI-H23): 23.4 µM
- GI50 (SF-268): 6.21 µM
- CC50 (SF-268): 23.5 µM
- GI50 (HL-60(TB)): 4.39 µM
- CC50 (HL-60(TB)): > 100 µM
- GI50 (UO-31): 4 µM
- CC50 (UO-31): 16.6 µM
- GI50 (SK-MEL-2): 5.47 µM
- CC50 (SK-MEL-2): 19.5 µM
- GI50 (SW-620): 2.78 µM
- CC50 (SW-620): 11 µM
- GI50 (NCI-H226): 6.14 µM
- CC50 (NCI-H226): 24.3 µM
- GI50 (OVCAR-8): 10.2 µM
- CC50 (OVCAR-8): 23.7 µM
- GI50 (HOP-62): 12.5 µM
- CC50 (HOP-62): 27.5 µM
- GI50 (SK-MEL-5): 5.89 µM
- CC50 (SK-MEL-5): 18.8 µM
- GI50 (786-0): 7.28 µM
- CC50 (786-0): 20.2 µM
- GI50 (SF-295): 6.11 µM
- CC50 (SF-295): 19.8 µM
- GI50 (BT-549): 11.6 µM
- CC50 (BT-549): 23.9 µM
- GI50 (EKVX): 3.11 µM
- CC50 (EKVX): 14.7 µM
- GI50 (COLO 205): 5.96 µM
- CC50 (COLO 205): 18.7 µM
- GI50 (HCT-116): 1.66 µM
- CC50 (HCT-116): 3.11 µM
- GI50 (OVCAR-4): 5.92 µM
- CC50 (OVCAR-4): 22 µM
- GI50 (A549/ATCC): 4.52 µM
- CC50 (A549/ATCC): 17.4 µM
- GI50 (HCT-15): 4.62 µM
- CC50 (HCT-15): 16.9 µM
- GI50 (U251): 5.25 µM
- CC50 (U251): 18.6 µM
- GI50 (OVCAR-5): 10.7 µM
- CC50 (OVCAR-5): 22.6 µM
- GI50 (SN12C): 3.79 µM
- CC50 (SN12C): 15.9 µM
- GI50 (ACHN): 4.2 µM
- CC50 (ACHN): 15.3 µM
- GI50 (CCRF-CEM): 3.75 µM
- CC50 (CCRF-CEM): > 100 µM
- GI50 (RPMI-8226): 2.47 µM
- CC50 (RPMI-8226): 7.11 µM
- GI50 (IGROV1): 8.58 µM
- CC50 (IGROV1): 21.4 µM
- GI50 (M14): 4.14 µM
- CC50 (M14): 15.3 µM
- GI50 (MDA-MB-435): 3.8 µM
- CC50 (MDA-MB-435): 14 µM

Compound: COc1cc(/C=C/C(=O)c2cc(OC)c(OC)c(OC)c2)ccc1Oc1nc(NCCO)nc(N2CCOCC2)n1 [20d]
- activity at 10 µM (60 cancer cell lines): 0.79%
- GI50 (NCI-H460): 1.87 µM
- CC50 (NCI-H460): 8.69 µM
- GI50 (MALME-3M): 2.67 µM
- CC50 (MALME-3M): 24.3 µM
- GI50 (KM12): 2.99 µM
- CC50 (KM12): > 100 µM
- GI50 (SK-MEL-28): 1.92 µM
- CC50 (SK-MEL-28): 7.53 µM
- GI50 (SNB-75): 1.79 µM
- CC50 (SNB-75): 24.2 µM
- GI50 (NCI-H322M): 2.91 µM
- CC50 (NCI-H322M): 29.3 µM
- GI50 (UACC-257): 2.83 µM
- CC50 (UACC-257): 36.7 µM
- GI50 (SNB-19): 2.31 µM
- CC50 (SNB-19): 29.9 µM
- GI50 (NCI-H23): 1.99 µM
- CC50 (NCI-H23): 17.5 µM
- GI50 (SF-268): 3.02 µM
- CC50 (SF-268): 71.8 µM
- GI50 (HL-60(TB)): 1.54 µM
- CC50 (HL-60(TB)): > 100 µM
- GI50 (UO-31): 1.66 µM
- CC50 (UO-31): 6.5 µM
- GI50 (SK-MEL-2): 2.76 µM
- CC50 (SK-MEL-2): 33.1 µM
- GI50 (SW-620): 2.24 µM
- CC50 (SW-620): 26.4 µM
- GI50 (NCI-H226): 3.69 µM
- CC50 (NCI-H226): > 100 µM
- GI50 (OVCAR-8): 2.56 µM
- CC50 (OVCAR-8): 34.7 µM
- GI50 (HOP-62): 2.35 µM
- CC50 (HOP-62): 22.4 µM
- GI50 (SK-MEL-5): 1.77 µM
- CC50 (SK-MEL-5): 6.19 µM
- GI50 (786-0): 3.46 µM
- CC50 (786-0): 43.6 µM
- GI50 (SF-295): 2.9 µM
- CC50 (SF-295): 35.2 µM
- GI50 (BT-549): 1.6 µM
- CC50 (BT-549): 6.88 µM
- GI50 (EKVX): 2.81 µM
- CC50 (EKVX): 36.6 µM
- GI50 (COLO 205): 2.1 µM
- CC50 (COLO 205): 9.18 µM
- GI50 (HCT-116): 1.53 µM
- CC50 (HCT-116): 6.78 µM
- GI50 (OVCAR-4): 2.92 µM
- CC50 (OVCAR-4): 33.4 µM
- GI50 (A549/ATCC): 2.78 µM
- CC50 (A549/ATCC): 42.2 µM
- GI50 (HCT-15): 1.6 µM
- CC50 (HCT-15): 10.2 µM
- GI50 (U251): 1.62 µM
- CC50 (U251): 6.02 µM
- GI50 (OVCAR-5): 3.14 µM
- CC50 (OVCAR-5): 38.4 µM
- GI50 (SN12C): 1.79 µM
- CC50 (SN12C): 23.3 µM
- GI50 (ACHN): 1.64 µM
- CC50 (ACHN): 7.9 µM
- GI50 (CCRF-CEM): 2.38 µM
- CC50 (CCRF-CEM): > 100 µM
- GI50 (RPMI-8226): 1.63 µM
- CC50 (RPMI-8226): > 100 µM
- GI50 (IGROV1): 2.45 µM
- CC50 (IGROV1): 26.2 µM
- GI50 (M14): 2.38 µM
- CC50 (M14): 37.9 µM
- GI50 (MDA-MB-435): 3.1 µM
- CC50 (MDA-MB-435): 35.1 µM
